Source: the Deep4Chem optical property database

Assay: solvent given as SMILES
[1] = in O=P(c1ccccc1)(c1ccccc1)c1ccccc1Oc1ccccc1P(=O)(c1ccccc1)c1ccccc1

c1ccc(-c2nnc(-c3ccc(N4c5ccccc5N(c5ccccc5)c5ccccc54)cc3)n2-c2ccccc2)cc1
fluorescence lifetime (in Cc1ccccc1): 3.9 ns
fluorescence lifetime (in c1cc(-n2c3ccccc3c3ccccc32)cc(-n2c3ccccc3c3ccccc32)c1): 3.5 ns

Cc1csc2[n+]1[B-](F)(F)OC(c1ccc(N(C)C)cc1)=N2
fluorescence lifetime (in C1CCOC1): 2.24 ns

COc1ccc(C2=[O+][B-](F)(F)OC(c3ccc4c(c3)Cc3ccccc3-4)=C2)cc1
fluorescence lifetime (in CC#N): 1.6 ns

F[B-]1(F)n2c(/C=C/c3ccc(C(=C(c4ccccc4)c4ccccc4)c4ccccc4)cc3)ccc2C(c2ccccc2)=C2C=CC(/C=C/c3ccc(C(=C(c4ccccc4)c4ccccc4)c4ccccc4)cc3)=[N+]21
fluorescence lifetime (in C1CCOC1): 3.98 ns

O=C1c2cc(-c3ccccc3)ccc2-c2ccc(-c3ccccc3)cc21
fluorescence lifetime (in C1CCOC1): 1 ns

F[B-]1(F)n2c(c3cccc4cccc2c43)=Nc2ccc3ccccc3[n+]21
fluorescence lifetime (in ClCCl): 6.1 ns

c1ccc(N(c2ccccc2)c2cc3c4c(c2)N(c2ccccc2)c2cc5c(cc2B4c2ccccc2N3c2ccccc2)B2c3ccccc3N(c3ccccc3)c3cc(N(c4ccccc4)c4ccccc4)cc(c32)N5c2ccccc2)cc1
fluorescence lifetime (in Cc1ccccc1-c1cccc(Oc2cc3c4c(c2)Oc2cc(-c5ccccc5C)ccc2B4c2ccc(-c4ccccc4C)cc2O3)c1): 4.1 ns

Nc1cccc2cn[nH]c12
fluorescence lifetime (in CC#N): 4.63 ns
fluorescence lifetime (in CO): 1.69 ns
fluorescence lifetime (in O): 1.74 ns

C(#Cc1ccccc1)C(C#Cc1ccccc1)=Cc1cccc(C=C(C#Cc2ccccc2)C#Cc2ccccc2)c1
fluorescence lifetime (in ClC(Cl)Cl): 0.3 ns

N#Cc1c[nH]c2ccccc12
fluorescence lifetime (in C1CCOC1): 3.1 ns
fluorescence lifetime (in C1COCCO1): 3 ns
fluorescence lifetime (in CC#N): 1.8 ns
fluorescence lifetime (in CS(C)=O): 0.2 ns

COC(=O)C(NC(=O)OC(C)(C)C)c1ccc2oc(-c3cc(OC)ccc3OC)nc2c1 (configuration not stated)
fluorescence lifetime (in CC1CCCCC1): 1.93 ns
fluorescence lifetime (in CC#N): 2.03 ns
fluorescence lifetime (in CO): 2.03 ns

CC(C)c1cc(C(C)C)c(B2c3ccccc3Oc3cc(-n4c5ccccc5c5c6c(c7ccccc7n6-c6ccccc6)c6c(c7ccccc7n6-c6ccccc6)c54)ccc32)c(C(C)C)c1
fluorescence lifetime (in CC(C)c1cc(C(C)C)c(-c2ccc(-n3c4ccccc4n4c5ccccc5nc34)nc2)c(C(C)C)c1): 23.1 ns
fluorescence lifetime [1]: 24.7 ns

Cc1cc(-c2nc(-c3ccccc3)nc(-c3ccccc3)n2)ccc1-n1c2ccccc2c2cc3c(cc21)C1c2ccccc2C3c2ccccc21
fluorescence lifetime [1]: 10.6 ns

COc1ccc2c(c1)c1cc(OC)ccc1c1c2c2c(C(=O)NC(C)(C)C)ccc(C(=O)NC(C)(C)C)c2c2c3ccc(OC)cc3c3cc(OC)ccc3c21
fluorescence lifetime (in ClCCl): 0.85 ns

C(=C\c1nc2ccccc2[nH]1)/c1ccc(/C=C/c2nc3ccccc3[nH]2)cc1
fluorescence lifetime (in C1CCOC1): 1.02 ns
fluorescence lifetime (in CC#N): 1.12 ns
fluorescence lifetime (in CC(C)=O): 1.07 ns
fluorescence lifetime (in CN(C)C=O): 0.997 ns
fluorescence lifetime (in CO): 1.06 ns
fluorescence lifetime (in CS(C)=O): 0.919 ns

COc1ccc(N(c2ccccc2)c2ccccc2)cc1
fluorescence lifetime (in Cc1ccccc1): 1.89 ns

CCn1c2ccccc2c2cc(-c3cc(-c4ccc5c(c4)c4ccccc4n5CC)nc(-c4ccc(OC)cc4)n3)ccc21
fluorescence lifetime (in C1CCOC1): 1.63 ns

O=c1c2cccc3cccc(c32)c2nc3c(F)c(F)c(F)c(F)c3n12
fluorescence lifetime (in ClCCl): 9 ns

O=c1cccc2n1C[C@@H]1CNC[C@H]2C1
fluorescence lifetime (in CC#N): 0.289 ns

CN1CCN(c2ccc3c4c(cccc24)C(=O)c2ccccc2-3)CC1
fluorescence lifetime (in C1CCCCC1): 8.9 ns
fluorescence lifetime (in C1CCOC1): 10 ns
fluorescence lifetime (in C1COCCO1): 10.3 ns
fluorescence lifetime (in CC1COC(=O)O1): 8.04 ns
fluorescence lifetime (in CC#N): 9.53 ns
fluorescence lifetime (in CC(C)=O): 8.45 ns
fluorescence lifetime (in CCCCCCCCO): 5.99 ns
fluorescence lifetime (in CCCCCO): 5.38 ns
fluorescence lifetime (in CCCCO): 5.03 ns
fluorescence lifetime (in CCCO): 4.66 ns
fluorescence lifetime (in CCO): 3.77 ns
fluorescence lifetime (in CCOC(C)=O): 9.8 ns
fluorescence lifetime (in CN(C)C=O): 8.27 ns
fluorescence lifetime (in CO): 2.93 ns
fluorescence lifetime (in CS(C)=O): 8.5 ns
fluorescence lifetime (in Cc1ccccc1): 9.37 ns
fluorescence lifetime (in ClC(Cl)Cl): 10.4 ns

c1ccc(N2N=C(c3cccc4ccccc34)CC2c2ccc3ccc4cccc5ccc2c3c45)cc1 (configuration not stated)
fluorescence lifetime (in ClCCl): 2.01 ns

O=C1c2ccc(N(c3ccc(-c4ccccc4)cc3)c3ccc(-c4ccccc4)cc3)cc2C(=O)c2ccc(N(c3ccc(-c4ccccc4)cc3)c3ccc(-c4ccccc4)cc3)cc21
fluorescence lifetime (in Cc1ccccc1): 3.5 ns
fluorescence lifetime (in c1ccc2c(c1)c1ccccc1n2-c1ccc(-c2ccc(-n3c4ccccc4c4ccccc43)cc2)cc1): 5.6 ns

CCCCOc1ccc(/C=C/C=C/C=C/c2ccc([N+](=O)[O-])cc2)cc1
fluorescence lifetime (in Cc1ccccc1): 1.7 ns

C=Cc1cc2ccc(N(CC)CC)cc2oc1=O
fluorescence lifetime (in CC#N): 2.84 ns

C[Si](C)(C)c1ccc2ccc3cccc4ccc1c2c34
fluorescence lifetime (in CCCCCC): 66.9 ns
fluorescence lifetime (in CO): 175 ns
fluorescence lifetime (in ClCCl): 94.2 ns

CCN(CC)c1ccc2cc(/C(Cl)=C/C=C/C(=C(C#N)C#N)c3ccc(N(c4ccccc4)c4ccccc4)cc3)c(=O)oc2c1
fluorescence lifetime (in CC(C)=O): 1.51 ns
fluorescence lifetime (in CCOC(C)=O): 2.42 ns
fluorescence lifetime (in CN(C)C=O): 0.21 ns
fluorescence lifetime (in CS(C)=O): 0.18 ns
fluorescence lifetime (in Cc1ccccc1): 1.95 ns
fluorescence lifetime (in ClCCl): 1.56 ns

Cc1ccc(/C2=c3\cc/c(o3)=C(\c3ccc(C)cc3)c3ccc([nH]3)-c3ccc4n3[P-](=O)(=O)[N+]3=C(C=CC3=C4c3ccco3)c3ccc2[nH]3)cc1
fluorescence lifetime (in ClC(Cl)Cl): 4.2 ns

CCCCc1ccc2c(c1)c1ccc3cccc4c3c1c1c2c2cccc3ccc5c6cc(CCCC)ccc6c4c1c5c32
fluorescence lifetime (in ClCCl): 1.74 ns

CCOc1cccc2c1O[B-](F)(F)[n+]1c3c(c4c(c1-2)-c1ccccc1CC4)-c1ccccc1CC3
fluorescence lifetime (in ClCCl): 1.73 ns
